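48-hour exposure; five concentrations; linearly interpolated endpoints. GI50 is the concentration that inhibits growth by half. At the TGI there is no net growth.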
Experiments:
Assay in all cases: DTP human tumour cell line panel, 48 h
A549 NSCLC = tested on: A549 NSCLC
NCI-H23 lung = tested on: NCI-H23 lung
LOX IMVI melanoma = tested on: LOX IMVI melanoma
NCI-H522 lung = tested on: NCI-H522 lung
786-0 renal = tested on: 786-0 renal
SN12C renal = tested on: SN12C renal
A498 renal = tested on: A498 renal
HCT-116 colon = tested on: HCT-116 colon
CAKI-1 renal = tested on: CAKI-1 renal
NCI/ADR-RES ovarian = tested on: NCI/ADR-RES ovarian

| Structure (SMILES) | GI50 (A549 NSCLC) | TGI (A549 NSCLC) | GI50 (NCI-H23 lung) | TGI (NCI-H23 lung) | GI50 (LOX IMVI melanoma) | TGI (LOX IMVI melanoma) | GI50 (NCI-H522 lung) | TGI (NCI-H522 lung) | GI50 (786-0 renal) | TGI (786-0 renal) | GI50 (SN12C renal) | TGI (SN12C renal) | GI50 (A498 renal) | TGI (A498 renal) | GI50 (HCT-116 colon) | TGI (HCT-116 colon) | GI50 (CAKI-1 renal) | TGI (CAKI-1 renal) | GI50 (NCI/ADR-RES ovarian) | TGI (NCI/ADR-RES ovarian) |
| --- | --- | --- | --- | --- | --- | --- | --- | --- | --- | --- | --- | --- | --- | --- | --- | --- | --- | --- | --- | --- |
| COc1ccc2c(c1)c(CC(=O)[Se]C)c(C)n2C(=O)c1ccc(Cl)cc1 | > 0.283 µM | > 0.603 µM | > 0.376 µM | > 0.894 µM | > 0.203 µM | > 0.528 µM | > 0.371 µM | > 0.677 µM | > 0.197 µM | > 0.428 µM | > 0.49 µM | > 1 µM | 0.269 µM | > 0.561 µM | > 0.204 µM | > 0.543 µM | > 0.266 µM | > 0.515 µM | > 0.237 µM | > 0.695 µM |
| COc1cc2c(cc1OC)[C@H](C)N1CCc3cc(OC)c(OC)cc3[C@@H]1C2 |  | > 100 µM |  | > 100 µM |  | > 100 µM |  | > 100 µM |  | > 100 µM |  | > 100 µM |  | > 100 µM |  | > 100 µM |  | > 100 µM |  | > 100 µM |
| CC1=C(C(=O)Nc2ccc3n[nH]c(C)c3c2)C(c2ccc(C(F)(F)F)cc2)CC(=O)N1 (centres undefined) | 18.5 µM | > 25 µM | > 17.6 µM | > 25 µM | 12.8 µM | > 25 µM | 9.13 µM | > 21.5 µM | > 25 µM | > 25 µM | > 25 µM | > 25 µM | 6.3 µM | > 25 µM | 12.5 µM | > 25 µM | > 18.8 µM | > 25 µM | > 25 µM | > 25 µM |
| O=C1Nc2ccc(Br)cc2C1=Nc1cccnc1 |  | > 100 µM |  | 45.4 µM |  | 34.8 µM |  | 29.5 µM |  | 44.7 µM |  | 37.9 µM |  | > 100 µM |  | 44.5 µM |  | > 100 µM |  | 87.1 µM |
| C#CC#CC#CC#CC#CC#CC#CC#CCC1OCC(COC(=O)O[C@@H](C(=O)O[C@H]2C[C@@]3(O)[C@@H](OC(=O)c4ccccc4)[C@@H]4[C@]5(OC(C)=O)CO[C@@H]5C[C@H](O)[C@@]4(C)C(=O)[C@H](OC(C)=O)C(=C2C)C3(C)C)[C@@H](NC(=O)c2ccccc2)c2ccccc2)O1 (some centres undefined) | 0.175 µM | > 33.3 µM | 0.465 µM | > 33.3 µM | 0.0275 µM | > 33.3 µM | 0.166 µM | > 33.3 µM | 2.15 µM | > 33.3 µM | 0.51 µM | > 33.3 µM | 0.191 µM |  | 0.0533 µM | > 33.3 µM | 0.446 µM | > 33.3 µM | > 33.3 µM | > 33.3 µM |
| COc1ccc(CCN2CC=Cn3c2nc2ccccc2c3=O)cc1 | 0.038 µM | > 49.1 µM | 0.0416 µM | > 100 µM | 0.0585 µM | > 40.1 µM | 0.0113 µM | 0.0375 µM | 0.0445 µM | 31.6 µM | 0.116 µM | > 61.1 µM | 0.0203 µM | 0.0851 µM | 0.0347 µM | > 100 µM | 0.0576 µM | > 100 µM | 0.0179 µM | 0.77 µM |
| COc1cc(OC)c2nc(C)c3c(c2c1)SCC3 |  | 40.9 µM |  | 58.6 µM |  | > 100 µM |  | 77.8 µM |  | 35.4 µM |  | 57.9 µM |  | 36.2 µM |  | 48.5 µM |  | 70.9 µM |  | 65.5 µM |
| O=C(Nc1ccc(Br)cc1F)c1cc(I)ccc1O | 3.17 µM | > 100 µM | 1.9 µM | 6.01 µM | 2.78 µM | 14.3 µM | 2.11 µM | 7.16 µM | 3.32 µM | 11.4 µM | 2.75 µM | 9.91 µM | 1.32 µM | 3.46 µM | 2.79 µM | 11.4 µM | 1.83 µM | 6.51 µM | 2.63 µM | 8.5 µM |
| CC1=C(c2cccc(O)c2)[C@H](c2ccc(OCCN3CC(CF)C3)cc2)Oc2ccc(O)cc21 | 7.81 µM | 23.8 µM | 11.2 µM | 25.1 µM | 2.23 µM | 5.16 µM | 16 µM | 32.8 µM | 5.15 µM | 18.9 µM | 7.42 µM | 21.3 µM | 1.68 µM | 9.66 µM | 4.46 µM | 17.5 µM | 3.13 µM | 12.9 µM | 15 µM | 31 µM |
| Cc1cc2c(C(C)C)c(O)c(O)cc2c(O)c1-c1c(C)cc2c(C(C)C)c(O)c(O)cc2c1O | 17.2 µM | 47.2 µM | 18.4 µM | 37.5 µM | 4.42 µM | 16.2 µM | 10.1 µM | 24.5 µM | 16.7 µM | 33.9 µM | 8.03 µM | 20.6 µM | 14.1 µM | 32.2 µM | 3.98 µM | 14 µM | 19.2 µM | 82.6 µM | 20.7 µM | 48.9 µM |
| O=C(Nc1cccc(-n2cc(-c3ccncc3)c(-c3ccc(Cl)c(O)c3)n2)c1)Nc1cc(C(F)(F)F)cc(C(F)(F)F)c1 | 0.313 µM | 1.38 µM | 0.998 µM | 2.86 µM | 0.712 µM | 1.4 µM | 0.707 µM | 2.1 µM | 1.02 µM | 2.35 µM | 0.852 µM | 3.14 µM | 0.595 µM | 2.3 µM | 0.487 µM | 1.24 µM | 0.867 µM | 2.88 µM | 1.23 µM | 5.67 µM |
| Cc1cc(NCCCN(C)C)c2ccc3c(ccc4c(NCCCN(C)C)cc(C)nc43)c2n1 | 0.0643 µM | 0.411 µM | 0.23 µM | 0.673 µM | 0.176 µM | 0.401 µM | 0.202 µM | 0.554 µM | 0.202 µM | 0.506 µM | 0.157 µM | 0.553 µM | 0.189 µM | 0.409 µM | 0.17 µM | 0.439 µM | 0.217 µM | 0.673 µM | 0.583 µM | 3.38 µM |
| C=C(C(N)=O)c1ccc([N+](=O)[O-])o1 |  | 40.3 µM |  | 20.6 µM |  | 23.1 µM |  | 4.24 µM |  | 24.1 µM |  | 22.4 µM |  | 25.7 µM |  | 14.7 µM |  | 7.27 µM |  | > 100 µM |
